{"source": "BigSolDB 2.1", "data": [{"compound": "Clc1cc(Cl)c(OCCBr)c(Cl)c1", "values": [{"measurement": "solubility (mole fraction)", "setting": "in acetone, 278.2 K", "value": 0.094}, {"measurement": "solubility (mole fraction)", "setting": "in acetone, 283.1 K", "value": 0.105}, {"measurement": "solubility (mole fraction)", "setting": "in acetone, 288.1 K", "value": 0.117}, {"measurement": "solubility (mole fraction)", "setting": "in acetone, 293.1 K", "value": 0.131}, {"measurement": "solubility (mole fraction)", "setting": "in acetone, 298.2 K", "value": 0.146}, {"measurement": "solubility (mole fraction)", "setting": "in acetone, 303.2 K", "value": 0.163}, {"measurement": "solubility (mole fraction)", "setting": "in acetone, 308.2 K", "value": 0.182}, {"measurement": "solubility (mole fraction)", "setting": "in acetone, 313.1 K", "value": 0.203}, {"measurement": "solubility (mole fraction)", "setting": "in acetone, 318.2 K", "value": 0.226}, {"measurement": "solubility (mole fraction)", "setting": "in acetone, 323.2 K", "value": 0.253}, {"measurement": "solubility (mole fraction)", "setting": "in acetonitrile, 278.2 K", "value": 0.0146}, {"measurement": "solubility (mole fraction)", "setting": "in acetonitrile, 283.2 K", "value": 0.0176}, {"measurement": "solubility (mole fraction)", "setting": "in acetonitrile, 288.2 K", "value": 0.0211}, {"measurement": "solubility (mole fraction)", "setting": "in acetonitrile, 293.1 K", "value": 0.0253}, {"measurement": "solubility (mole fraction)", "setting": "in acetonitrile, 298.2 K", "value": 0.0304}, {"measurement": "solubility (mole fraction)", "setting": "in acetonitrile, 303.1 K", "value": 0.0364}, {"measurement": "solubility (mole fraction)", "setting": "in acetonitrile, 308.2 K", "value": 0.0437}, {"measurement": "solubility (mole fraction)", "setting": "in acetonitrile, 313.2 K", "value": 0.0525}, {"measurement": "solubility (mole fraction)", "setting": "in acetonitrile, 318.2 K", "value": 0.063}, {"measurement": "solubility (mole fraction)", "setting": "in acetonitrile, 323.2 K", "value": 0.076}, {"measurement": "solubility (mole fraction)", "setting": "in ethanol, 278.2 K", "value": 0.00698}, {"measurement": "solubility (mole fraction)", "setting": "in ethanol, 283.1 K", "value": 0.00794}, {"measurement": "solubility (mole fraction)", "setting": "in ethanol, 288.2 K", "value": 0.0086}, {"measurement": "solubility (mole fraction)", "setting": "in ethanol, 293.1 K", "value": 0.00968}, {"measurement": "solubility (mole fraction)", "setting": "in ethanol, 298.1 K", "value": 0.0108}, {"measurement": "solubility (mole fraction)", "setting": "in ethanol, 303.1 K", "value": 0.012}, {"measurement": "solubility (mole fraction)", "setting": "in ethanol, 308.2 K", "value": 0.0134}, {"measurement": "solubility (mole fraction)", "setting": "in ethanol, 313.2 K", "value": 0.0149}, {"measurement": "solubility (mole fraction)", "setting": "in ethanol, 318.1 K", "value": 0.0166}, {"measurement": "solubility (mole fraction)", "setting": "in ethanol, 323.2 K", "value": 0.0186}, {"measurement": "solubility (mole fraction)", "setting": "in isopropanol, 278.1 K", "value": 0.00574}, {"measurement": "solubility (mole fraction)", "setting": "in isopropanol, 283.2 K", "value": 0.00688}, {"measurement": "solubility (mole fraction)", "setting": "in isopropanol, 288.2 K", "value": 0.00825}, {"measurement": "solubility (mole fraction)", "setting": "in isopropanol, 293.1 K", "value": 0.0099}, {"measurement": "solubility (mole fraction)", "setting": "in isopropanol, 298.2 K", "value": 0.0118}, {"measurement": "solubility (mole fraction)", "setting": "in isopropanol, 303.2 K", "value": 0.0142}, {"measurement": "solubility (mole fraction)", "setting": "in isopropanol, 308.2 K", "value": 0.017}, {"measurement": "solubility (mole fraction)", "setting": "in isopropanol, 313.1 K", "value": 0.0204}, {"measurement": "solubility (mole fraction)", "setting": "in isopropanol, 318.1 K", "value": 0.0245}, {"measurement": "solubility (mole fraction)", "setting": "in isopropanol, 323.2 K", "value": 0.0294}, {"measurement": "solubility (mole fraction)", "setting": "in methanol, 278.1 K", "value": 0.00356}, {"measurement": "solubility (mole fraction)", "setting": "in methanol, 283.1 K", "value": 0.00448}, {"measurement": "solubility (mole fraction)", "setting": "in methanol, 288.1 K", "value": 0.00563}, {"measurement": "solubility (mole fraction)", "setting": "in methanol, 293.2 K", "value": 0.0071}, {"measurement": "solubility (mole fraction)", "setting": "in methanol, 298.2 K", "value": 0.00892}, {"measurement": "solubility (mole fraction)", "setting": "in methanol, 303.2 K", "value": 0.0112}, {"measurement": "solubility (mole fraction)", "setting": "in methanol, 308.1 K", "value": 0.0141}, {"measurement": "solubility (mole fraction)", "setting": "in methanol, 313.2 K", "value": 0.0177}, {"measurement": "solubility (mole fraction)", "setting": "in methanol, 318.2 K", "value": 0.0223}, {"measurement": "solubility (mole fraction)", "setting": "in methanol, 323.1 K", "value": 0.0281}, {"measurement": "solubility (mole fraction)", "setting": "in n-heptane, 278.2 K", "value": 0.0388}, {"measurement": "solubility (mole fraction)", "setting": "in n-heptane, 283.1 K", "value": 0.047}, {"measurement": "solubility (mole fraction)", "setting": "in n-heptane, 288.1 K", "value": 0.057}, {"measurement": "solubility (mole fraction)", "setting": "in n-heptane, 293.1 K", "value": 0.069}, {"measurement": "solubility (mole fraction)", "setting": "in n-heptane, 298.1 K", "value": 0.0839}, {"measurement": "solubility (mole fraction)", "setting": "in n-heptane, 303.2 K", "value": 0.102}, {"measurement": "solubility (mole fraction)", "setting": "in n-heptane, 308.2 K", "value": 0.123}, {"measurement": "solubility (mole fraction)", "setting": "in n-heptane, 313.1 K", "value": 0.15}, {"measurement": "solubility (mole fraction)", "setting": "in n-heptane, 318.2 K", "value": 0.182}, {"measurement": "solubility (mole fraction)", "setting": "in n-heptane, 323.1 K", "value": 0.22}, {"measurement": "solubility (mole fraction)", "setting": "in n-propanol, 278.1 K", "value": 0.0098}, {"measurement": "solubility (mole fraction)", "setting": "in n-propanol, 283.2 K", "value": 0.0105}, {"measurement": "solubility (mole fraction)", "setting": "in n-propanol, 288.2 K", "value": 0.0113}, {"measurement": "solubility (mole fraction)", "setting": "in n-propanol, 293.2 K", "value": 0.0121}, {"measurement": "solubility (mole fraction)", "setting": "in n-propanol, 298.1 K", "value": 0.013}, {"measurement": "solubility (mole fraction)", "setting": "in n-propanol, 303.2 K", "value": 0.014}, {"measurement": "solubility (mole fraction)", "setting": "in n-propanol, 308.1 K", "value": 0.0151}, {"measurement": "solubility (mole fraction)", "setting": "in n-propanol, 313.2 K", "value": 0.0162}, {"measurement": "solubility (mole fraction)", "setting": "in n-propanol, 318.1 K", "value": 0.0174}, {"measurement": "solubility (mole fraction)", "setting": "in n-propanol, 323.2 K", "value": 0.0187}]}]}
